These are literature values, as cited in patent US9540416B2, “Purification process” (GLAXOSMITHKLINE BIOLOGICALS S.A., priority 2012, dated 2017).

Entries after “also recorded” stand apart in the source; their conditions may differ.

The subject of one series is mice and other mammals. As to conditions: in mice and other mammals.
For series [1] the following is noted: relative to other Quillaja saponins.

QS-17: the adjuvant activity entry in the series on mice and other mammals is recorded as “significant adjuvant activity”. In the case of QS-18, the adjuvant activity entry with mice and other mammals was “significant adjuvant activity”. In addition, the toxicity entry in series [1] is “more toxic at lower doses than other Quillaja saponins”. Consider QS-21, for which the adjuvant activity entry with mice and other mammals is reported as “significant adjuvant activity; also recorded: strong adjuvant activity”. The toxicity result in series [1] is on record as “low toxicity”.
